In brackets after ≈: the same amount, converted by molar mass.
Columns and labels:
[1] = tested on: Staphylococcus epidermidis; test: Selectivity ratio of MBC for antibacterial activity against Methicillin-sensitive Staphylococcus epidermidis […] to MIC for antibacterial activity against Methicillin-sensitive Staphylococcus epidermidis […]; assay type: functional
Staphylococcus aureus [2] = test: Antibacterial activity against Methicillin-resistant Staphylococcus aureus ATCC 43300 assessed as bacterial growth inhibition incubated for 20 to 24 hrs by microbroth serial dilution assay; assay type: functional; conditions: time 20-24 hrs
Staphylococcus aureus [3] = test: Antibacterial activity against Methicillin-resistant Staphylococcus aureus ATCC 33591 assessed as bacterial growth inhibition incubated for 20 to 24 hrs by microbroth serial dilution assay; assay type: functional; conditions: time 20-24 hrs
[4] = tested on: Staphylococcus epidermidis; test: Antibacterial activity against Methicillin-sensitive Staphylococcus epidermidis ATCC 12228 assessed as bacterial growth inhibition incubated for 20 to 24 hrs by microbroth serial dilution assay; assay type: functional; conditions: time 20-24 hrs
[5] = tested on: Staphylococcus epidermidis; test: Antibacterial activity against Methicillin-resistant Staphylococcus epidermidis ATCC 51625 assessed as bacterial growth inhibition incubated for 20 to 24 hrs by microbroth serial dilution assay; assay type: functional; conditions: time 20-24 hrs
[6] = tested on: Staphylococcus epidermidis; test: Selectivity ratio of MBC for antibacterial activity against Methicillin-resistant Staphylococcus epidermidis ATCC 51625 to MIC for antibacterial activity against Methicillin-resistant Staphylococcus epidermidis ATCC 51625; assay type: functional
Staphylococcus aureus [7] = test: Antibacterial activity against Methicillin-sensitive Staphylococcus aureus ATCC 29213 assessed as bacterial growth inhibition incubated for 20 to 24 hrs by microbroth serial dilution assay
Staphylococcus aureus [8] = test: Antibacterial activity against Staphylococcus aureus ATCC 25923 assessed as bacterial growth inhibition incubated for 20 to 24 hrs by microbroth serial dilution assay; assay type: functional; conditions: time 20-24 hrs
Staphylococcus aureus [9] = test: Selectivity ratio of MBC for antibacterial activity against Staphylococcus aureus to MIC for antibacterial activity against Staphylococcus aureus; assay type: functional
Staphylococcus aureus [10] = test: Selectivity ratio of MBC for antibacterial activity against Methicillin-sensitive Staphylococcus aureus ATCC 29213 to MIC for antibacterial activity against Methicillin-sensitive Staphylococcus aureus ATCC 29213
Staphylococcus aureus [11] = test: Selectivity ratio of MBC for antibacterial activity against Methicillin-resistant Staphylococcus aureus ATCC 33591 to MIC for antibacterial activity against Methicillin-resistant Staphylococcus aureus ATCC 33591; assay type: functional

Compound	Ratio [1]	MIC (Staphylococcus aureus [2]) [µg/mL]	MIC (Staphylococcus aureus [3]) [µg/mL]	MIC [4] [µg/mL]	MIC [5] [µg/mL]	Ratio [6]	MIC (Staphylococcus aureus [7]) [µg/mL]	MIC (Staphylococcus aureus [8]) [µg/mL]	Ratio (Staphylococcus aureus [9])	Ratio (Staphylococcus aureus [10])	Ratio (Staphylococcus aureus [11])
C=C[C@]1(C)C[C@@H](OC(=O)CSc2nc(N)nc3c2ncn3C(=O)Nc2cccc(C(F)(F)F)c2)[C@@]2(C)C3C(=O)CC[C@@]3(CC[C@H]2C)[C@@H](C)[C@@H]1O (some centres not stated)	>4	0.25 (≈ 0.35 µM)	0.25 (≈ 0.35 µM)	0.0156 (≈ 0.0218 µM)	0.125 (≈ 0.175 µM)	4	0.125 (≈ 0.175 µM)	0.25 (≈ 0.35 µM)	>4		
C=C[C@]1(C)C[C@@H](OC(=O)CSc2nc(N)nc3c2ncn3C(=O)NCc2ccccc2OC)[C@@]2(C)C3C(=O)CC[C@@]3(CC[C@H]2C)[C@@H](C)[C@@H]1O (some centres not stated)	>4	0.0625 (≈ 0.0905 µM)	0.125 (≈ 0.181 µM)	0.0156 (≈ 0.0226 µM)	0.0625 (≈ 0.0905 µM)		0.0625 (≈ 0.0905 µM)	0.125 (≈ 0.181 µM)	>4	2	4
C=C[C@]1(C)C[C@@H](OC(=O)CSc2nc(N)nc3c2ncn3C(=O)c2ccc([N+](=O)[O-])cc2)[C@@]2(C)C3C(=O)CC[C@@]3(CC[C@H]2C)[C@@H](C)[C@@H]1O (some centres not stated)	>4	0.0625 (≈ 0.0923 µM)	0.125 (≈ 0.185 µM)	< 0.0078	0.0625 (≈ 0.0923 µM)		0.0625 (≈ 0.0923 µM)	0.125 (≈ 0.185 µM)	>4		
C=C[C@]1(C)C[C@@H](OC(=O)CSc2nc(N)nc3c2ncn3C(=O)CCc2ccccc2)[C@@]2(C)C3C(=O)CC[C@@]3(CC[C@H]2C)[C@@H](C)[C@@H]1O (some centres not stated)	>4	0.125 (≈ 0.189 µM)	0.125 (≈ 0.189 µM)	0.0156 (≈ 0.0236 µM)	0.125 (≈ 0.189 µM)		0.125 (≈ 0.189 µM)	0.25 (≈ 0.379 µM)	4	>4	
C=C[C@]1(C)C[C@@H](OC(=O)CSc2nc(N)nc3c2ncn3C(=O)NCc2ccc(C)cc2)[C@@]2(C)C3C(=O)CC[C@@]3(CC[C@H]2C)[C@@H](C)[C@@H]1O (some centres not stated)	>4	0.0625 (≈ 0.0926 µM)	0.0625 (≈ 0.0926 µM)	< 0.0312	0.0625 (≈ 0.0926 µM)		0.125 (≈ 0.185 µM)	0.125 (≈ 0.185 µM)	>4	4	
C=C[C@]1(C)C[C@@H](OC(=O)CSc2nc(NC(=O)CN3CCC(O)CC3)nc3[nH]cnc23)[C@@]2(C)C3C(=O)CC[C@@]3(CC[C@H]2C)[C@@H](C)[C@@H]1O (some centres not stated)	>4	32 (≈ 47.8 µM)	16 (≈ 23.9 µM)	2 (≈ 2.99 µM)	2 (≈ 2.99 µM)		16 (≈ 23.9 µM)	16 (≈ 23.9 µM)	>4		
C=C[C@]1(C)C[C@@H](OC(=O)CSc2nc(N)nc3c2ncn3C(=O)Nc2ccccc2OC)[C@@]2(C)C3C(=O)CC[C@@]3(CC[C@H]2C)[C@@H](C)[C@@H]1O (some centres not stated)	>4	0.25 (≈ 0.369 µM)	0.125 (≈ 0.185 µM)	0.0156 (≈ 0.023 µM)	0.125 (≈ 0.185 µM)		0.125 (≈ 0.185 µM)	0.25 (≈ 0.369 µM)	>4	2	
C=C[C@]1(C)C[C@@H](OC(=O)CSc2nc(N)nc3c2ncn3C(=O)NCCc2ccccc2)[C@@]2(C)C3C(=O)CC[C@@]3(CC[C@H]2C)[C@@H](C)[C@@H]1O (some centres not stated)				< 0.0078							
C=C[C@]1(C)C[C@@H](OC(=O)CSc2nc(N)nc3c2ncn3C(=O)NCc2ccccc2)[C@@]2(C)C3C(=O)CC[C@@]3(CC[C@H]2C)[C@@H](C)[C@@H]1O (some centres not stated)	>4	0.0625 (≈ 0.0946 µM)	0.0312 (≈ 0.0473 µM)	< 0.0078	0.0625 (≈ 0.0946 µM)		0.0625 (≈ 0.0946 µM)	0.0312 (≈ 0.0473 µM)	>4		
C=C[C@]1(C)C[C@@H](OC(=O)CSc2nc(N)nc3c2ncn3C(=O)Nc2cccc(NC(=O)OC(C)(C)C)c2)[C@@]2(C)C3C(=O)CC[C@@]3(CC[C@H]2C)[C@@H](C)[C@@H]1O (some centres not stated)	>4	0.25 (≈ 0.328 µM)	0.25 (≈ 0.328 µM)	0.0156 (≈ 0.0205 µM)	0.125 (≈ 0.164 µM)		0.25 (≈ 0.328 µM)	0.25 (≈ 0.328 µM)	>4	2	4
C=C[C@]1(C)C[C@@H](OC(=O)CSc2nc(N)nc3c2ncn3C(=O)Nc2cccc(F)c2)[C@@]2(C)C3C(=O)CC[C@@]3(CC[C@H]2C)[C@@H](C)[C@@H]1O (some centres not stated)	>4	0.25 (≈ 0.376 µM)	0.25 (≈ 0.376 µM)	0.0156 (≈ 0.0235 µM)	0.125 (≈ 0.188 µM)		0.0625 (≈ 0.094 µM)	0.25 (≈ 0.376 µM)	>4		
C=C[C@]1(C)C[C@@H](OC(=O)CSc2nc(N)nc3c2ncn3C(=O)NCc2ccc([N+](=O)[O-])cc2)[C@@]2(C)C3C(=O)CC[C@@]3(CC[C@H]2C)[C@@H](C)[C@@H]1O (some centres not stated)	>4	0.25 (≈ 0.354 µM)	0.25 (≈ 0.354 µM)	< 0.0078	0.0625 (≈ 0.0885 µM)		0.0625 (≈ 0.0885 µM)	0.125 (≈ 0.177 µM)	>4		
